Patent US20260217708A1, “FUSED BENZAZEPINE DERIVATIVES FOR USE IN THE TREATMENT OF CANCER AND EPILEPSY” (UCB BIOPHARMA SRL, priority 2023, published 2026)

Assays:
system Xc^− [1] = target: T1, system Xc^− (Homo sapiens, UniProt Q9UPY5); assay: Cystine-induced glutamate release assay; format: cell-based; set-up: endogenous in cells; host or cells: H4 cells; details: H4 cells, sodium-free HEPES buffer, 50 μM L-Cystine, 2 hours, Amplex Red glutamate readout; read-out: pIC50 Cystine-induced glutamate release assay (converted)
T1 sequence (Q9UPY5 1-501): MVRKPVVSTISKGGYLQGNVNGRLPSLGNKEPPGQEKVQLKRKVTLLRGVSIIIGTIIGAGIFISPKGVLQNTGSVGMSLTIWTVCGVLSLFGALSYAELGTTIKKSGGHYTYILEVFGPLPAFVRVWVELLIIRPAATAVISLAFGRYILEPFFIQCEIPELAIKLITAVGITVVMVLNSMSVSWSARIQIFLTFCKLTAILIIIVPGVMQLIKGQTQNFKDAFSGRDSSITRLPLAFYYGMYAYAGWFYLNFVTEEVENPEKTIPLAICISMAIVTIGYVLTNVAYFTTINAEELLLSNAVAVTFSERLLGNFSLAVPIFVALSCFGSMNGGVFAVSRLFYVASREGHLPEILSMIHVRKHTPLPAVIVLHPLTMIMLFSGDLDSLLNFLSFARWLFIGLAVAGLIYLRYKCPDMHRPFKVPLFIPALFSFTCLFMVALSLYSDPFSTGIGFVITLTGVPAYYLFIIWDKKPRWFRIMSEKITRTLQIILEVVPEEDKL
T1 sequence (P08195 1-529 partner): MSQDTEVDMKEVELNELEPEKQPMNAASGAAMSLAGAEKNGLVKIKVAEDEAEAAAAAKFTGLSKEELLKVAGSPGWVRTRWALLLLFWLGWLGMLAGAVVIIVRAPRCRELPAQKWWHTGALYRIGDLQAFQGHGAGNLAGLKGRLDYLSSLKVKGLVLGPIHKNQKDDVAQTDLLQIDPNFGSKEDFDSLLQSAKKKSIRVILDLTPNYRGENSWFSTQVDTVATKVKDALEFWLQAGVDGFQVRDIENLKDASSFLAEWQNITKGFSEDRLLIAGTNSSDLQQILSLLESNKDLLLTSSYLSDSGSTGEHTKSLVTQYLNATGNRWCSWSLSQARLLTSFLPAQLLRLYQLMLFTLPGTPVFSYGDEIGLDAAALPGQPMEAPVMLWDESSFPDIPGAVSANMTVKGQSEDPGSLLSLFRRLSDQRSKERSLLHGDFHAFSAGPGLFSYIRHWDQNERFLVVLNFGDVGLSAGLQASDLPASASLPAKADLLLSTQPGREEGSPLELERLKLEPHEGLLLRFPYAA
How it was run: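 H4 cells in sodium-free HEPES buffer (pH 7.4), 2 days after plating; glutamate release induced with 50 μM L-cystine plus compound (1% DMSO), 2 h at 37 °C. Supernatant glutamate measured by Amplex Red fluorescence; IC50/pIC50 derived between 1% DMSO and 50 μM erastin controls.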

system Xc^− [2] = target: T1, system Xc^−; assay: [^14C]L-Cystine uptake assay; format: cell-based; set-up: endogenous in cells; host or cells: H4 cells; details: H4 cells, sodium-free HEPES buffer, 0.5 μM L-[14C]Cystine and 4.5 μM L-Cystine, 1 hour at 37° C.; read-out: pIC50 [^14C] L-Cystine uptake assay (converted)
How it was run: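 H4 cells at 5×10^4 cells/well in sodium-free HEPES buffer were preincubated 15 min with compounds (1% DMSO). Uptake of 0.5 μM [14C]L-cystine plus 4.5 μM unlabelled L-cystine ran 1 hour at 37° C on scintillating plates. IC50 was set between 1% DMSO and 50 μM Erastin controls and expressed as pIC50.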

SMILES | IC50 (system Xc^− [1]) | IC50 (system Xc^− [2])
Cc1cc2c(c(F)n1)-c1ccnn1C(C)C(=O)N2CC(=O)Nc1ccc(C(F)(F)F)cc1 (stereo not shown) [#111, 2-(14-fluoro-7,12-dimethyl-8-oxo-5,6,9,13-tetrazatricyclo[8.4.0.0^2,6]tetradeca-1(10),2,4,11,13-pentaen-9-yl)-N-[4-(trifluoromethyl)phenyl]acetamide] | 100 to 501 nM | 39.8 to 100 nM
Cc1cc2c(c(F)n1)-c1cncnc1C(C)C(=O)N2CC(=O)Nc1ccc(C(F)(F)F)cc1 (stereo not shown) [#112, 2-(15-fluoro-8,13-dimethyl-9-oxo-4,6,10,14-tetrazatricyclo[9.4.0.0^2,7]pentadeca-1(15),2(7),3,5,11,13-hexaen-10-yl)-N-[4-(trifluoromethyl)phenyl]acetamide] | 39.8 to 100 nM | < 15.8 nM
COc1nc(F)cc2c1-c1cccnc1CC(=O)N2CC(=O)Nc1ccc(C(F)(F)F)cc1 [#113, 2-(5-fluoro-3-methoxy-9-oxo-4,8,12-triazatricyclo[9.4.0.0^2,7]pentadeca-1(11),2,4,6,12,14-hexaen-8-yl)-N-[4-(trifluoromethyl)phenyl]acetamide] | 39.8 to 100 nM | < 15.8 nM
Cc1cc2c(c(Cl)n1)-c1cccnc1C(C)C(=O)N2CC(=O)Nc1ccc(C(F)(F)F)cc1 (stereo not shown) [#114, 2-(3-chloro-5,10-dimethyl-9-oxo-4,8,12-triazatricyclo[9.4.0.0^2,7]pentadeca-1(11),2,4,6,12,14-hexaen-8-yl)-N-[4-(trifluoromethyl)phenyl]acetamide] | 15.8 to 39.8 nM | < 15.8 nM
Cc1cc2c(c(Cl)n1)-c1cccnc1C(C)C(=O)N2CC(=O)Nc1ccc(C#N)cc1 (stereo not shown) [#115, 2-(3-chloro-5,10-dimethyl-9-oxo-4,8,12-triazatricyclo[9.4.0.0^2,7]pentadeca-1(11),2,4,6,12,14-hexaen-8-yl)-N-(4-cyanophenyl)acetamide] | 100 to 501 nM | 39.8 to 100 nM
CC(=O)N(C)c1nc2c(s1)-c1ccccc1CC(=O)N2CC(=O)Nc1ccc(C(F)(F)F)cc1 [#118, 2-[2-[acetyl(methyl)amino]-5-oxo-6H-thiazolo[4,5-d][3]benzazepin-4-yl]-N-[4-(trifluoromethyl)phenyl]acetamide] | 100 to 501 nM | 39.8 to 100 nM

Next, values leading:

IC50 (system Xc^− [1]) | IC50 (system Xc^− [2]) | SMILES
15.8 to 39.8 nM | 15.8 to 39.8 nM | Cc1cc2c(n(C)c1=O)-c1cccnc1C(C)C(=O)N2CC(=O)Nc1ccc(C(F)(F)F)cc1 (stereo not shown) [#119, N-[4-(trifluoromethyl)phenyl]-2-(3,5,10-trimethyl-4,9-dioxo-3,8,12-triazatricyclo[9.4.0.0^2,7]pentadeca-1(11),2(7),5,12,14-pentaen-8-yl)acetamide]
15.8 to 39.8 nM | < 15.8 nM | Cc1ccc(NC(=O)CN2C(=O)C(C)c3ccccc3-c3c2cc(C)c(=O)n3C)cc1F (stereo not shown) [#120, N-(3-fluoro-4-methyl-phenyl)-2-(1,3,7-trimethyl-2,6-dioxo-7H-pyrido[3,2-d][3]benzazepin-5-yl)acetamide]
100 to 501 nM | 39.8 to 100 nM | COCC1C(=O)N(CC(=O)Nc2ccc(C(F)(F)F)cc2)c2cc(C)nc(Cl)c2-c2ccccc21 (stereo not shown) [#122, 2-[1-chloro-7-(methoxymethyl)-3-methyl-6-oxo-7H-pyrido[3,4-a][3]benzazepin-5-yl]-N-[4-(trifluoromethyl)phenyl]acetamide]
100 to 501 nM | 39.8 to 100 nM | Cc1cc2c(c(F)n1)-c1c[nH]nc1CC(=O)N2CC(=O)Nc1ccc(C(F)(F)F)cc1 [#123, 2-(14-fluoro-12-methyl-8-oxo-4,5,9,13-tetrazatricyclo[8.4.0.0^2,6]tetradeca-1(10),2,5,11,13-pentaen-9-yl)-N-[4-(trifluoromethyl)phenyl]acetamide]
39.8 to 100 nM | 15.8 to 39.8 nM | COc1cc2c(c(F)n1)-c1cccnc1CC(=O)N2CC(=O)Nc1ccc(C(F)(F)F)cc1 [#124, 2-(3-fluoro-5-methoxy-9-oxo-4,8,12-triazatricyclo[9.4.0.0^2,7]pentadeca-1(11),2,4,6,12,14-hexaen-8-yl)-N-[4-(trifluoromethyl)phenyl]acetamide]
